Measurements taken from ChEMBL document CHEMBL1201862, “PubChem BioAssay data set” (2004).
One block for each molecule: values may come before it. Active and inactive are the calls of the source.

What was measured:
[1] = target: T1, E3 ubiquitin-protein ligase XIAP (Homo sapiens, UniProt P98170); assay: Counter Screen using XIAP-Bir3 for Chemical Antagonists of Bir1/2 domains of IAP-family anti-apoptotic proteins. [Related pubchem assays (depositor defined):AID1018, AID1449, AID1514, AID1638, AID1749, AID1750, AID488957, AID488963]
[2] = target: T1, E3 ubiquitin-protein ligase XIAP; assay: small molecules displacing peptide from XIAP – biochemical, IAP family, fluorescence polarization (AID 1018); assay type: functional
[3] = target: T2, Cannabinoid receptor 2 (Homo sapiens, UniProt P34972); assay: SAR analysis of antagonists of the Cannabinoid Receptor 2 using an Image-Based Assay - Set 2. [Related pubchem assays (depositor defined):AID1961, AID1965]; assay type: functional
[4] = target: G-protein coupled receptor 55 (Homo sapiens, UniProt Q9Y2T6); assay: SAR analysis of selective Agonists of GPR55 using an Image-Based Assay - Set 2. [Related pubchem assays (depositor defined):AID1961, AID1965]; assay type: functional
[5] = target: T2, Cannabinoid receptor 2; assay: SAR analysis of agonists of the Cannabinoid Receptor 2 using an Image-Based Assay - Set 2. [Related pubchem assays (depositor defined):AID1961, AID1965]; assay type: functional
[6] = target: T3, G-protein coupled receptor 35 (Homo sapiens, UniProt Q9HC97); assay: SAR analysis of Agonists of the GPR35 Receptor using an Image-Based Assay - Set 3. [Related pubchem assays (depositor defined):AID1961, AID1965]; assay type: functional
[7] = target: T4, Cannabinoid receptor 1 (Homo sapiens, UniProt P21554); assay: SAR analysis of antagonists of the Cannabinoid Receptor 1 using an Image-Based Assay - Set 3. [Related pubchem assays (depositor defined):AID1961, AID1965]; assay type: functional
[8] = target: T4, Cannabinoid receptor 1; assay: SAR analysis of agonists of the Cannabinoid Receptor 1 using an Image-Based Assay - Set 3. [Related pubchem assays (depositor defined):AID1961, AID1965]; assay type: functional
[9] = target: T3, G-protein coupled receptor 35; assay: SAR analysis of Antagonists of the GPR35 Receptor using an Image-Based Assay - Set 4. [Related pubchem assays (depositor defined):[…]]; assay type: functional
[10] = target: T5, Coagulation factor XII (Homo sapiens, UniProt P00748); assay: Factor XIIa Dose Response Confirmation from Single Well HTS. [Related pubchem assays (depositor defined):AID701]; assay type: functional
T5 sequence (P00748 whole entry): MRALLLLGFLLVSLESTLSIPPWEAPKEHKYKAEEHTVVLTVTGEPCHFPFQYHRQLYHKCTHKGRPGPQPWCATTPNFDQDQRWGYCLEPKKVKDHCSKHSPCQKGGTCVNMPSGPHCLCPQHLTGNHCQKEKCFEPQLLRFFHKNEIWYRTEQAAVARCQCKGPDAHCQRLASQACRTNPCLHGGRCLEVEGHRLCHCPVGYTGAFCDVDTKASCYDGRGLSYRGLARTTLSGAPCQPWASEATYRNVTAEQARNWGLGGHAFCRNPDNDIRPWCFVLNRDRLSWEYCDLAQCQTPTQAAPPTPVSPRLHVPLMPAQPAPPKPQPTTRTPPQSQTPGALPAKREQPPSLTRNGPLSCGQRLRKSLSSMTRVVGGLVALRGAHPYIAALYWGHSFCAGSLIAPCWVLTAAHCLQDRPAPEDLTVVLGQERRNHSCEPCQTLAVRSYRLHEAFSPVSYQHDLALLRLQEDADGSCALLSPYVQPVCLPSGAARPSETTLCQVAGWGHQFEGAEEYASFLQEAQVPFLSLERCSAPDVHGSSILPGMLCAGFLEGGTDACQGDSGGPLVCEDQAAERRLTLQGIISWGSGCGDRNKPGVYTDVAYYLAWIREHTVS

[11] = target: T6, Runt-related transcription factor 1/Core-binding factor subunit beta (Homo sapiens, UniProt Q01196+Q13951); assay: disruptors of Runt domain/CBFb-SMMHC interaction – biochemical, FRET, Cerulean-Runt, Venus-CBFb-SMMHC, uHTS, […] (AID 1434); assay type: protein assay
[12] = target: T6, Runt-related transcription factor 1/Core-binding factor subunit beta; assay: Runt domain/CBFb-SMMHC interaction disruptors – biochemical, TR-FRET (AID 1438); assay type: protein assay
[13] = target: T7, Polyadenylate-binding protein 1 (Homo sapiens, UniProt P11940); assay: MLLE binding blockers, Cy5 peptide tracer – biochemical, fluorescence polarization, Cy5-PAM2 peptide, secondary, miRNA deadenylation inhibitor project, dose response (AID 602260); assay type: functional; settings: read-out: IC50_Mean
[14] = target: T7, Polyadenylate-binding protein 1; assay: MLLE domain peptide-binding blockers, IC50 – biochemical, fluorescence polarization, FITC-PAM2 peptide, dose response (AID 602259); assay type: functional; settings: read-out: IC50_Mean
[15] = target: Trypsin (Sus scrofa, UniProt P00761); assay: trypsin protease activity blockade – biochemical, quenched peptide fluorescence, cherry-pick, selectivity assay for Rce1 protease inhibitor project, dose response (AID 488789)
[16] = target: T8, CAAX prenyl protease 2 (Saccharomyces cerevisiae S288c, UniProt Q03530); assay type: biochemical
T8 sequence (Q03530 whole entry): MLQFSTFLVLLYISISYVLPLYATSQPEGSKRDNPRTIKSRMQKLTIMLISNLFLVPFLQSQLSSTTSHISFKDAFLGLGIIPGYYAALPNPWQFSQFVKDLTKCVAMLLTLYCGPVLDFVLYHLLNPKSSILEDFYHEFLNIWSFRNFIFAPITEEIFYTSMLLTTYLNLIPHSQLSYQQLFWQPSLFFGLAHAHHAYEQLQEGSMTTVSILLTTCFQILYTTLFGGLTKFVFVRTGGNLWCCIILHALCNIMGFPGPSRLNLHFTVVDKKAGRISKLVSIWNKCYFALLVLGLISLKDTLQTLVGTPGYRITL

[17] = toxicity toward cultured mammalian cells – cell-based, plate reader, cherry-pick samples, cytotoxicity control, dose response (AID 504397); assay type: functional

T2 sequence (P34972 whole entry): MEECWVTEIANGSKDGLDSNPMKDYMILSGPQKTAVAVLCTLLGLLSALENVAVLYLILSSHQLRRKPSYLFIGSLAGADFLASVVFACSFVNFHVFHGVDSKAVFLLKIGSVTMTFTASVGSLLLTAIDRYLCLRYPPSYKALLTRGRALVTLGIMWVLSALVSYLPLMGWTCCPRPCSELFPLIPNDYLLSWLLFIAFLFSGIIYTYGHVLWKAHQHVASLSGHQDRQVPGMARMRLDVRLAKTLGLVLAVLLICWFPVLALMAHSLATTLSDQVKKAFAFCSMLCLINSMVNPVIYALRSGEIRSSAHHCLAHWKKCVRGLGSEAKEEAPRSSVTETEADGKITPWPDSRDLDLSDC
T3 sequence (Q9HC97 whole entry): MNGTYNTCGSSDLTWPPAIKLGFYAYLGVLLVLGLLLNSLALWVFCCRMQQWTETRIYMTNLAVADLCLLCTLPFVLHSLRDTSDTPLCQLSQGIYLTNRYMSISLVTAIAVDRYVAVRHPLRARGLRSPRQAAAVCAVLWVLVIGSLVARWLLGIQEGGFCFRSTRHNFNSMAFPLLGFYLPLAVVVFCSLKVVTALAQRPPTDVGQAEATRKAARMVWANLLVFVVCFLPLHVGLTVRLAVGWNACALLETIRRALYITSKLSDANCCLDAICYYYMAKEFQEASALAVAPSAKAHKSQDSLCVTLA
T4 sequence (P21554 whole entry): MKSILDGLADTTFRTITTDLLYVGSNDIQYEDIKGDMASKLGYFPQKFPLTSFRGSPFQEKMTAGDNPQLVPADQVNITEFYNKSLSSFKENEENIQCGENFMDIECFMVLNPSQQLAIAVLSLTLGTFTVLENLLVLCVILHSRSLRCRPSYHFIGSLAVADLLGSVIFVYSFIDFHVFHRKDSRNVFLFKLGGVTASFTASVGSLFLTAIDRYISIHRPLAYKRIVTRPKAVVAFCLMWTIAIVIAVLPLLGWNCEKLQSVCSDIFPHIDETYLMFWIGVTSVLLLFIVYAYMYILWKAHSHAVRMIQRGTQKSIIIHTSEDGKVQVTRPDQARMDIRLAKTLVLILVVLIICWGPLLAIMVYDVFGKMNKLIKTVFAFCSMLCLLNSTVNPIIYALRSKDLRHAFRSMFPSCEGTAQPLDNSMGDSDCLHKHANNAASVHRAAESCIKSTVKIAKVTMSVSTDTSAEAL
T7 sequence (P11940 whole entry, the tested form may be a part): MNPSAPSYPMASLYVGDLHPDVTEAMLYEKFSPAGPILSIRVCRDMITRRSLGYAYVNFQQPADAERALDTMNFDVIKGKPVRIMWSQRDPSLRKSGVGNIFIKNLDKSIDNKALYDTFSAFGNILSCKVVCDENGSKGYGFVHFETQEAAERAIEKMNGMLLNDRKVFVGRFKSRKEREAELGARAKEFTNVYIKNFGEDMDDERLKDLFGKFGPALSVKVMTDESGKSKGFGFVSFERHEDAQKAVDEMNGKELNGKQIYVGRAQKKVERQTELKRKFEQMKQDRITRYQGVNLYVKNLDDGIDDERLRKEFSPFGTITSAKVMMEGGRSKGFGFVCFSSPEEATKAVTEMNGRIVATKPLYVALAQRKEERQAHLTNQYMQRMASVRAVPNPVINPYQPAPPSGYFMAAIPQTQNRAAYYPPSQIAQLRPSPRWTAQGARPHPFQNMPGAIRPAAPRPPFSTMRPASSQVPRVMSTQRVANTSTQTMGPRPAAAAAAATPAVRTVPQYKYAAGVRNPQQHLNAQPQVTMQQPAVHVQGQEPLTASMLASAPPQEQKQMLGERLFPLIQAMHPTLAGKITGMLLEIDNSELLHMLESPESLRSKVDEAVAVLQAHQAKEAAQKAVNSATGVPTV
T6 sequence (Q01196 whole entry, the tested form may be a part): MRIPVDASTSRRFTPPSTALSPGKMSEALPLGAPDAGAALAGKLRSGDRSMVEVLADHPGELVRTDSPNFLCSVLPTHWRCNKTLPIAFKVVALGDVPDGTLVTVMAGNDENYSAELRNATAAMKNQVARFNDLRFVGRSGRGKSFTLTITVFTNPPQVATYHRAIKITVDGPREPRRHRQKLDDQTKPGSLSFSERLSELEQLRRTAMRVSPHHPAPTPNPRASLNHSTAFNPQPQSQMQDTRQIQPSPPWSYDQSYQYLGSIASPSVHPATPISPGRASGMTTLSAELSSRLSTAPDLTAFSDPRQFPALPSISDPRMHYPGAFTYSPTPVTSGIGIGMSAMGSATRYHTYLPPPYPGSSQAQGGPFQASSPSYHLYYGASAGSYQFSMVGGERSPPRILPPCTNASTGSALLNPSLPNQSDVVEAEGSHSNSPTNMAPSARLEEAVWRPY
T6 sequence (Q13951 whole entry, the tested form may be a part): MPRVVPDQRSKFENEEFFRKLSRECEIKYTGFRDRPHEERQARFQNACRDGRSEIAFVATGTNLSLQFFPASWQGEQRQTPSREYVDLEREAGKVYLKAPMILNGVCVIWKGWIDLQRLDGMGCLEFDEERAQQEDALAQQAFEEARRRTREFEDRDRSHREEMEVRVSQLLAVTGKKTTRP
T1 sequence (P98170 whole entry): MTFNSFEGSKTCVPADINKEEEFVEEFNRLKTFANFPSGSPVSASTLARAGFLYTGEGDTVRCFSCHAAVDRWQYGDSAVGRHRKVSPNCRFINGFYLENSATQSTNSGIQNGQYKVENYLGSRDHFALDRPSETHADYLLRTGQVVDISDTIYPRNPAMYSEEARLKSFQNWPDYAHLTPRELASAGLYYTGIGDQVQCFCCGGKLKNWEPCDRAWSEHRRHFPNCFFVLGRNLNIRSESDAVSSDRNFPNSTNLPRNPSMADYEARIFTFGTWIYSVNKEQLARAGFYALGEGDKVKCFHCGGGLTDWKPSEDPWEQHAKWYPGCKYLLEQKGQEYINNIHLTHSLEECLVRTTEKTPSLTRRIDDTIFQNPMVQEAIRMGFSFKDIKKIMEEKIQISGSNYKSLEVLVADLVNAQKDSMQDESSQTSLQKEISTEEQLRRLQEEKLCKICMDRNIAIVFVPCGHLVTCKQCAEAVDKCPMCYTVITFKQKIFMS
Chain of Trypsin (P00761 whole entry): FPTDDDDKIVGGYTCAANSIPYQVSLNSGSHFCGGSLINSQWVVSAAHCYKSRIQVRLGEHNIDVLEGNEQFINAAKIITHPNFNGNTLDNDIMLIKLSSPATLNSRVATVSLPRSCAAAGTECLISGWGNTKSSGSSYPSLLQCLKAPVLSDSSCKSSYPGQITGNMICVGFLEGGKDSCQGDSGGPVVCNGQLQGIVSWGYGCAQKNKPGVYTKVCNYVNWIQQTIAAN
Chain of G-protein coupled receptor 55 (Q9Y2T6 whole entry): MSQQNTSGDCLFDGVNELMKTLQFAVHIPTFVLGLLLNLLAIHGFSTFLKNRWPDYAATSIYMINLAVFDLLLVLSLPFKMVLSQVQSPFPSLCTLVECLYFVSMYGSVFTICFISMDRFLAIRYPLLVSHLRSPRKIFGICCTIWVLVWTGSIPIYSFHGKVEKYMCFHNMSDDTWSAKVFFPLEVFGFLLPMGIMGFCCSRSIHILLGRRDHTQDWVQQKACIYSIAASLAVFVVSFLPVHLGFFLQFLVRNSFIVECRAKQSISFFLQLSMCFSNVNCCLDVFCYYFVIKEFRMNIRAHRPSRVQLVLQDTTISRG

IC50 [3]: > 32 µM (inactive)
EC50 [4]: 1.37 µM (active)
EC50 [5]: > 32 µM (inactive)
EC50 [6]: > 32 µM (inactive)
IC50 [7]: > 32 µM (inactive)
EC50 [8]: > 32 µM (inactive)
IC50 [9]: > 32 µM (inactive)
Compound: O=C(Nc1cccc(S(=O)(=O)N2CCOCC2)c1)c1ccc(N2CCCC2=O)cc1

IC50 [10]: > 50 µM (inconclusive)
Compound: Cc1cc(OC(=O)c2ccco2)c2c(C)cc(=O)oc2c1

The remaining lines, values behind:

Compound: CSc1nc(N)nc(SCC(=O)Nc2cccc(F)c2)c1C#N
IC50 [1]: > 100 µM (inactive)
IC50 [2]: > 100 µM (not active)

Compound: N#Cc1cc2c(=O)n3ccccc3nc2n(Cc2ccco2)/c1=N/C(=O)c1ccco1
IC50 [11]: 1.67 µM (active)
IC50 [12]: 56.1 µM (inactive)
IC50 [13]: > 66 µM (inactive)
IC50 [14]: > 66 µM (inactive)

Compound: COc1cccc(C2CC(c3ccc(Br)cc3)=NN2C(=O)c2ccncc2)c1OC (configuration not stated)
AC50 [15]: 48.7 µM (active)
AC50 [16]: 3.7 µM (active)
AC50 [17]: 45.2 µM (active)
